Data published in PubChem BioAssay AID2060909 (Molecular Pharmacology Branch, DTP, NCI, 2025).
Several values for one entry are separate records, joined by “and”; a condition that tells them apart may be missing. Equal values may be shown once.

System: 362531-283-R-J2-PDC complex spheroid viability
Assay: Anticancer human tumor 362531-283-R-J2-PDC patient-derived colon adenocarcinoma cell line growth inhibition [RAS]
Conditions: for viability, T/C: stronger effect = lower value
How it was run: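 Tumour cells grown as complex spheroids with HUVEC endothelial cells and mesenchymal stem cells, treated with RAS pathway inhibitor combinations. Each agent spans half-log steps from near clinical Cmax, or 10 microM where Cmax is unknown.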
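Also: spheroids exposed to the agents for 7 days before readout.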
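For viability, T/C in this document: luminescence viability as percent of DMSO vehicle control wells.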

CCC(CC)c1cc(NC2CCC(N)C2)n2nccc2n1 (configuration not stated) + CCn1c(-c2cc(N3CCN(C)CC3)cnc2C(C)OC)c2c3cc(ccc31)-c1csc(n1)CC(NC(=O)C1CC1C)C(=O)N1CCCC(N1)C(=O)OCC(C)(C)C2
IC50 (curve of first compound, second compound 0.000949 µM): 4550 nM | IC50 (curve of first compound, second compound 0.003 µM): 4560 nM | IC50 (curve of first compound, second compound 0.00949 µM): 4580 nM | IC50 (curve of first compound, second compound 0.03 µM): 4800 nM | IC50 (curve of first compound, second compound 0.0949 µM): 4690 nM | IC50 (curve of first compound, second compound 0.3 µM): < 31.6 nM | viability, T/C (second compound 0.000949 µM, first compound 0.0316 µM): 94.5% | viability, T/C (second compound 0.000949 µM, first compound 0.1 µM): 116% | viability, T/C (second compound 0.000949 µM, first compound 0.316 µM): 99.3% | viability, T/C (second compound 0.000949 µM, first compound 1 µM): 101% | viability, T/C (second compound 0.000949 µM, first compound 3.16 µM): 71.2% | viability, T/C (second compound 0.000949 µM, first compound 10 µM): 4.02% | viability, T/C (second compound 0.003 µM, first compound 0.0316 µM): 103% | viability, T/C (second compound 0.003 µM, first compound 0.1 µM): 108% | viability, T/C (second compound 0.003 µM, first compound 0.316 µM): 96.6% | viability, T/C (second compound 0.003 µM, first compound 1 µM): 98.4% | viability, T/C (second compound 0.003 µM, first compound 3.16 µM): 71.4% | viability, T/C (second compound 0.003 µM, first compound 10 µM): 3.89% | viability, T/C (second compound 0.00949 µM, first compound 0.0316 µM): 102% | viability, T/C (second compound 0.00949 µM, first compound 0.1 µM): 141% | viability, T/C (second compound 0.00949 µM, first compound 0.316 µM): 97.5% | viability, T/C (second compound 0.00949 µM, first compound 1 µM): 94.7% | viability, T/C (second compound 0.00949 µM, first compound 3.16 µM): 76% | viability, T/C (second compound 0.00949 µM, first compound 10 µM): 3.54% | viability, T/C (second compound 0.03 µM, first compound 0.0316 µM): 101% | viability, T/C (second compound 0.03 µM, first compound 0.1 µM): 103% | viability, T/C (second compound 0.03 µM, first compound 0.316 µM): 89.8% | viability, T/C (second compound 0.03 µM, first compound 1 µM): 99.4% | viability, T/C (second compound 0.03 µM, first compound 3.16 µM): 76.1% | viability, T/C (second compound 0.03 µM, first compound 10 µM): 3.95% | viability, T/C (second compound 0.0949 µM, first compound 0.0316 µM): 90.2% | viability, T/C (second compound 0.0949 µM, first compound 0.1 µM): 86.8% | viability, T/C (second compound 0.0949 µM, first compound 0.316 µM): 81.2% | viability, T/C (second compound 0.0949 µM, first compound 1 µM): 85.6% | viability, T/C (second compound 0.0949 µM, first compound 3.16 µM): 74.1% | viability, T/C (second compound 0.0949 µM, first compound 10 µM): 3.61% | viability, T/C (second compound 0.3 µM, first compound 0.0316 µM): 47.8% | viability, T/C (second compound 0.3 µM, first compound 0.1 µM): 51.8% | viability, T/C (second compound 0.3 µM, first compound 0.316 µM): 45% | viability, T/C (second compound 0.3 µM, first compound 1 µM): 27.9% | viability, T/C (second compound 0.3 µM, first compound 3.16 µM): 4.3% | viability, T/C (second compound 0.3 µM, first compound 10 µM): 3.52%

CC(Nc1ccc2c(c1)OCCn1cc(N3C(=O)OCC3C(F)F)nc1-2)C(N)=O (configuration not stated)
viability, T/C (compound 0.0316 µM): 96.9% [middle of 4 runs] | viability, T/C (compound 0.1 µM): 97.1% [middle of 4 runs] | viability, T/C (compound 1 µM): 63.1% [middle of 4 runs] | viability, T/C (compound 3.16 µM): 43.1% [middle of 4 runs] | viability, T/C (compound 10 µM): 32.6% [middle of 4 runs] | IC50 (curve of compound): 1.77 µM [middle of 4 runs]

CCc1c2c(nc3ccc(O)cc13)-c1cc3c(c(=O)n1C2)COC(=O)[C@]3(O)CC + C#Cc1c(F)ccc2cc(O)cc(-c3ncc4c(N5CC6CCC(C5)N6)nc(OCC56CCCN5CC(F)C6)nc4c3F)c12
IC50 (curve of first compound, second compound 0.0316 µM): 42.2 nM | IC50 (curve of first compound, second compound 0.1 µM): 22.4 nM | IC50 (curve of first compound, second compound 0.316 µM): 16.6 nM | IC50 (curve of first compound, second compound 1 µM): 11.4 nM | IC50 (curve of first compound, second compound 3.16 µM): 2.45 nM | IC50 (curve of first compound, second compound 10 µM): < 0.949 nM | viability, T/C (second compound 0.0316 µM, first compound 0.000949 µM): 95.2% | viability, T/C (second compound 0.0316 µM, first compound 0.003 µM): 91.8% | viability, T/C (second compound 0.0316 µM, first compound 0.00949 µM): 71.5% | viability, T/C (second compound 0.0316 µM, first compound 0.03 µM): 60.6% | viability, T/C (second compound 0.0316 µM, first compound 0.0949 µM): 32.3% | viability, T/C (second compound 0.0316 µM, first compound 0.3 µM): 18% | viability, T/C (second compound 0.1 µM, first compound 0.000949 µM): 92.7% | viability, T/C (second compound 0.1 µM, first compound 0.003 µM): 85.8% | viability, T/C (second compound 0.1 µM, first compound 0.00949 µM): 64.3% | viability, T/C (second compound 0.1 µM, first compound 0.03 µM): 47.2% | viability, T/C (second compound 0.1 µM, first compound 0.0949 µM): 25.3% | viability, T/C (second compound 0.1 µM, first compound 0.3 µM): 21.2% | viability, T/C (second compound 0.316 µM, first compound 0.000949 µM): 84.9% | viability, T/C (second compound 0.316 µM, first compound 0.003 µM): 84.3% | viability, T/C (second compound 0.316 µM, first compound 0.00949 µM): 57.7% | viability, T/C (second compound 0.316 µM, first compound 0.03 µM): 40.5% | viability, T/C (second compound 0.316 µM, first compound 0.0949 µM): 18.2% | viability, T/C (second compound 0.316 µM, first compound 0.3 µM): 13.9% | viability, T/C (second compound 1 µM, first compound 0.000949 µM): 72.7% | viability, T/C (second compound 1 µM, first compound 0.003 µM): 76% | viability, T/C (second compound 1 µM, first compound 0.00949 µM): 51.2% | viability, T/C (second compound 1 µM, first compound 0.03 µM): 30.2% | viability, T/C (second compound 1 µM, first compound 0.0949 µM): 18.5% | viability, T/C (second compound 1 µM, first compound 0.3 µM): 12.1% | viability, T/C (second compound 3.16 µM, first compound 0.000949 µM): 58.2% | viability, T/C (second compound 3.16 µM, first compound 0.003 µM): 50.5% | viability, T/C (second compound 3.16 µM, first compound 0.00949 µM): 29% | viability, T/C (second compound 3.16 µM, first compound 0.03 µM): 19.8% | viability, T/C (second compound 3.16 µM, first compound 0.0949 µM): 16.1% | viability, T/C (second compound 3.16 µM, first compound 0.3 µM): 7.69% | viability, T/C (second compound 10 µM, first compound 0.000949 µM): 39.3% | viability, T/C (second compound 10 µM, first compound 0.003 µM): 26.9% | viability, T/C (second compound 10 µM, first compound 0.00949 µM): 18.8% | viability, T/C (second compound 10 µM, first compound 0.03 µM): 16.2% | viability, T/C (second compound 10 µM, first compound 0.0949 µM): 12.3% | viability, T/C (second compound 10 µM, first compound 0.3 µM): 8.32%

CC(C)NCC(C(=O)N1CCN(c2ncnc3c2C(C)CC3O)CC1)c1ccc(Cl)cc1 (configuration not stated)
viability, T/C (compound 0.0316 µM): 103% [middle of 4 runs] | viability, T/C (compound 0.1 µM): 103% [middle of 4 runs] | viability, T/C (compound 0.316 µM): 103% [middle of 4 runs] | viability, T/C (compound 1 µM): 101% [middle of 4 runs] | viability, T/C (compound 3.16 µM): 98.5% and 102% (2×) and 98.2% | viability, T/C (compound 10 µM): 98.2% [middle of 4 runs] | IC50 (curve of compound): > 10000 nM
